Assay results from patent US6960594B2, “Thiophene and furan 2,5-dicarboxamides useful in the treatment of cancer” (Shire BioChem Inc., priority 1998, dated 2005).

Experiments:
GP IIb-IIIa (αIIbβ3) = target: T1, GP IIb-IIIa (αIIbβ3) (Homo sapiens, UniProt P05106+P08514); test: Fibrinogen binding to immobilized GP IIb-IIIa (αIIbβ3)
T1 construct: purchased Calbiochem
Procedure: (§1) The wells of plastic microtiter plates were coated overnight at 4° C. with purified active αIIbβ3 (Calbiochem) or placental αvβ3 at 0.5 ug/mL (100 uL/well) in a buffer containing 150 mM NaCl, 20 mM Tris, pH 7.4, 1 mM MgCl2, 0.2 mM MnCl2, and including 1 mM CaCl2 for αIIbβ3. Blocking of nonspecific sites was achieved by incubating the wells with 35 mg/mL bovine serum albumin (BSA) for at least 2 hours at 37° C. Biotinylated-fibrinogen (10 nM) was added in 0.2 mL binding buffer (100 mM NaCl, 50 mM Tris, pH 7.4, 1 mM MgCl2, 0.2 mM MnCl2 and 1 mg/mL BSA including 1 mM CaCl2 for αIIbβ3) to the wells in triplicate in the absence or presence of increasing concentrations of compounds of interest (0.001-100 uM) and further incubated for 2 hours at 37° C. Nonbound fibrinogen was removed by five washes with binding buffer. Avidin conjugated to alkaline phosphatase (Sigma), diluted in binding buffer, was added and incubated for two hours at 37° C. The plates were washed five times with binding buffer, and after addition of the substrate PNPP (Pierce), the enzyme activity was measured by the absorbance at 405 nm.

αvβ5 = target: T2, αvβ5 (Homo sapiens, UniProt P06756+P18084); test: Cell adhesion assay, HT29 on vitronectin; assay type: cell-based
T2 construct: Cells HT29, K562, or K562 transfected with αvβ3; endogenous in cells; host or cells: HT29
T2 sequence (P06756 31-889 limits assumed): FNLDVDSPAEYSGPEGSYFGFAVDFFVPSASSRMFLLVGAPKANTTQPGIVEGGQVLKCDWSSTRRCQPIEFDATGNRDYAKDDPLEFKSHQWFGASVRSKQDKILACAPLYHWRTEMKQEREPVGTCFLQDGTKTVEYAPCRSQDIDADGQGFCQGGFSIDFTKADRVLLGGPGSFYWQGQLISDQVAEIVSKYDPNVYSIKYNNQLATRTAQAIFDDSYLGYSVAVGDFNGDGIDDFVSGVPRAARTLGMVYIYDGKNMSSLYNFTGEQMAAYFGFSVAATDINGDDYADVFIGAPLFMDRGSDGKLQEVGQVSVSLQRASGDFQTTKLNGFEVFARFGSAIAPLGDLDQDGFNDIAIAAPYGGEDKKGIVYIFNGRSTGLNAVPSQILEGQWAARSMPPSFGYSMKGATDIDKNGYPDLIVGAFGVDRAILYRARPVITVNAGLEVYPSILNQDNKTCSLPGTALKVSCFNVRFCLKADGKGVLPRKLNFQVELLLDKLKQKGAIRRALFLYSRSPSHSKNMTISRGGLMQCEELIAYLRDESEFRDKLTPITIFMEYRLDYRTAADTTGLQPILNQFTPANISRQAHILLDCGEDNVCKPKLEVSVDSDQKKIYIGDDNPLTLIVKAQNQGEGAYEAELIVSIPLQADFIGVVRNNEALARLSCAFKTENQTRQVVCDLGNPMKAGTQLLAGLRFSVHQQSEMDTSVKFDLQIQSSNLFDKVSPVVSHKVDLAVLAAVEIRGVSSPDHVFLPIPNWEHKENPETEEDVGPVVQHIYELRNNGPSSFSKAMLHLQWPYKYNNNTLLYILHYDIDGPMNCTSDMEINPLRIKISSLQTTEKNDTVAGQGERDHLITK
T2 sequence (P06756 891-1048 partner limits assumed): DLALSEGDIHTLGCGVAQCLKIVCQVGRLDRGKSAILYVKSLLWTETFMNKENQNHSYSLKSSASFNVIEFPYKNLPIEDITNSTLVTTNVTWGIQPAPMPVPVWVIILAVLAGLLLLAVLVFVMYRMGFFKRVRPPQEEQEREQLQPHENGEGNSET
T2 sequence (P18084 24-799): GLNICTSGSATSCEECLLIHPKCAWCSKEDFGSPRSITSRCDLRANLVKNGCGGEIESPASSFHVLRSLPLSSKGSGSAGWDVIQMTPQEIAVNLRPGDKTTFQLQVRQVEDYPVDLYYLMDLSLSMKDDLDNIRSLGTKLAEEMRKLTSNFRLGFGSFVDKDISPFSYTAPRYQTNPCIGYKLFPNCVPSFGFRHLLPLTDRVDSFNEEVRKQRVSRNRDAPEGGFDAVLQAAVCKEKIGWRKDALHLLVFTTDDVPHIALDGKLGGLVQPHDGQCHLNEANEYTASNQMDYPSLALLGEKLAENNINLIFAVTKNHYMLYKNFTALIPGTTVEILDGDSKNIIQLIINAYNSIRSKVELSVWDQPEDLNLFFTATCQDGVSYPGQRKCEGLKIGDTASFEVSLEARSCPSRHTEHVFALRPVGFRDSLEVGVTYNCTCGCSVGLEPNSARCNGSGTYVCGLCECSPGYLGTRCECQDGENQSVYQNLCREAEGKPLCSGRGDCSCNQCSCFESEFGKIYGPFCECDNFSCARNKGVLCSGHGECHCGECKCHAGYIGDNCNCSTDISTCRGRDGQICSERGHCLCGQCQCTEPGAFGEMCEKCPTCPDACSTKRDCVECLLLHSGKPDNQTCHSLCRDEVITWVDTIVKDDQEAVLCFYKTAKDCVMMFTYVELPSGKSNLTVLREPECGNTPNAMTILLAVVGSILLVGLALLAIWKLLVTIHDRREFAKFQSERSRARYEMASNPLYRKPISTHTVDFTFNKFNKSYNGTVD
Procedure: (§2) The wells of 96-well plates (Immunolon) were coated, by incubation overnight at 4° C., with 5 ug/mL vitronectin, 2 ug/mL osteopontin, or fibronectin or 10 mg/mL BSA in PBS. The protein solution was flicked out and the wells were blocked with 10 mg/mL BSA (0.1 mL) for 1-2 hours at 37° C. […] Cells were lifted with trypsin-EDTA and washed two times with Hank's balanced salt solution minus cations (Sigma) supplemented with 1 mM MgCl2 Cells (75,000 cells/well) were added to coated plates in triplicate and allowed to attach at 37° C. for 1 hour in the presence or absence of specific antibodies (5 ug/mL) or 10-fold dilutions of compounds of interest starting at 10 uM. Nonadherent cells were removed by gentle washing twice with PBS. The adherent cells were solubilized with 1% triton x-100 and detected using a fluorescence plate reader (DYNEX Technologies). The number of attached cells was calculated based upon standard curves for each cell line used in the experiment.

HT29 = test: Cell proliferation and cytotoxicity MTT assay, HT29; assay type: cell-based; details: Homo sapiens, HT-29, 72 hours culture
Procedure: (§3) The wells of microtiter plates were seeded with 2000 cells/well T24, 2500 cells/well HT29 or 5000 cells/well HMVEC (Cell Systems) in 100 uL, followed by an overnight culture for cell adhesion. The next day, the media is supplemented with 100 uL of 10-fold dilution of compound of interest starting at 10 uM. Following culture for 72 hours, 3-(4,5-dimethyl-2-thiazolyl)-2,5-diphenyltetrazolium bromide (MTT; Sigma) at 2 mg/mL was added to each well (50 uL/well) and further incubated for 4 hours at 37° C. The medium was flicked out and 200 uL of a 1:1 solution of ethanol:acetone followed by 25 uL of glycine buffer (0.1 M glycine, 0.1M NaCl, pH 10.5) is added and the color measured by the absorbance at 570 nm.

αvβ3 = target: T3, αvβ3 (Homo sapiens, UniProt P05106+P06756); test: Cell adhesion assay, K562-tr on osteopontin; assay type: cell-based
T3 construct: expressed in transfected cells; host or cells: K562
T3 sequence (P06756 31-889 limits assumed): as the sequence (P06756 31-889 limits assumed) above
T3 sequence (P06756 891-1048 partner limits assumed): as the sequence (P06756 891-1048 partner limits assumed) above
T3 sequence (P05106 27-788): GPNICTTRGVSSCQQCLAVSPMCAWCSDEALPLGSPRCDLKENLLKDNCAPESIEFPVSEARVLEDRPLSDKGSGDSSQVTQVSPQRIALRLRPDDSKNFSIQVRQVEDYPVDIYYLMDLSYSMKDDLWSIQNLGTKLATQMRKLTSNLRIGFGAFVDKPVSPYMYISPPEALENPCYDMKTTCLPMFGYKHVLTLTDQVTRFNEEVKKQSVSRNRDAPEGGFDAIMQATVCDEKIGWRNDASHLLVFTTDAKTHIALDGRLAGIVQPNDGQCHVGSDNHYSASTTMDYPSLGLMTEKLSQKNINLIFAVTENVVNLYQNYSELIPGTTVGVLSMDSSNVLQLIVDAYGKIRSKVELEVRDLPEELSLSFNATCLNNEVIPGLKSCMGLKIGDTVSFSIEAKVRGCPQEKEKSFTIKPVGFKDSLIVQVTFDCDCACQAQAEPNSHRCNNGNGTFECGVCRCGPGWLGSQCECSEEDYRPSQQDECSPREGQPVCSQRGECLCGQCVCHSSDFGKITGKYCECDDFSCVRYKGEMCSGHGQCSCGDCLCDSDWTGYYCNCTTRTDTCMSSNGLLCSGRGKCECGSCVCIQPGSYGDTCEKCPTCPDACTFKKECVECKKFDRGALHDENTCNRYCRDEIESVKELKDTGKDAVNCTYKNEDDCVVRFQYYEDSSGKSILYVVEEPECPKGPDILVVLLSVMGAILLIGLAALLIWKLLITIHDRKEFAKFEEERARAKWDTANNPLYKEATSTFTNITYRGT
Procedure: as §2

α5β1 = target: T4, α5β1 (Homo sapiens, UniProt P05556+P08648); test: Cell adhesion assay, K562 on fibronectin; assay type: cell-based; details: K562 cells, adhesion to fibronectin, 1 hour
T4 construct: Cells HT29, K562, or K562 transfected with αvβ3; endogenous in cells; host or cells: K562
T4 sequence (P08648 42-894 limits assumed): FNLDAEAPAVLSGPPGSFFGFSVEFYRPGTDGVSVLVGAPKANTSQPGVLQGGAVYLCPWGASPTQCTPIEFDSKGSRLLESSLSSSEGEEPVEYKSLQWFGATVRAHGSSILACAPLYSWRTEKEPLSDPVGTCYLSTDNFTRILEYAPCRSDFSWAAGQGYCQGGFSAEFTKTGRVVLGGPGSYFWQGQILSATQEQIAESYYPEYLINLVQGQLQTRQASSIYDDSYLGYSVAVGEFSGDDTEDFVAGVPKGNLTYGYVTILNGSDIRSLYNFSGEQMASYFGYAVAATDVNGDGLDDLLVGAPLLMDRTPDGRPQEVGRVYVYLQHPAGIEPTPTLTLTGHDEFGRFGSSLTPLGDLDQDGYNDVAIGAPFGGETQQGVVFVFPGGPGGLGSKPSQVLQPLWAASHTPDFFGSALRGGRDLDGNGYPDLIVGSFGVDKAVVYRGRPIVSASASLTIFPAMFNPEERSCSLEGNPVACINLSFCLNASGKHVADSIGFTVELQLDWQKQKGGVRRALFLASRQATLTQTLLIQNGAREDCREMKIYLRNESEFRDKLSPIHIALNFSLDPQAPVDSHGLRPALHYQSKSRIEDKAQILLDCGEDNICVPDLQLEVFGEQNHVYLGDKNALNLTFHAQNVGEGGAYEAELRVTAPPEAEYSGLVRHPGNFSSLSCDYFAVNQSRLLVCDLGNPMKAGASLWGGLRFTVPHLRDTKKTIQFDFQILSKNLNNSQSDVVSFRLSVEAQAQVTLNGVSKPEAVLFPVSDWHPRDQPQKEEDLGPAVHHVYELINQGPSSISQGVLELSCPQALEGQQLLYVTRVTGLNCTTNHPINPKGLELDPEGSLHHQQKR
T4 sequence (P08648 895-1049 partner limits assumed): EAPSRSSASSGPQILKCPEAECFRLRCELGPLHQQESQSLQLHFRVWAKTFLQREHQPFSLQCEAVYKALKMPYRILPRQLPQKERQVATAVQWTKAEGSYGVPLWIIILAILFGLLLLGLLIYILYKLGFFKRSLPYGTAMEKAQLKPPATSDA
T4 sequence (P05556 21-798): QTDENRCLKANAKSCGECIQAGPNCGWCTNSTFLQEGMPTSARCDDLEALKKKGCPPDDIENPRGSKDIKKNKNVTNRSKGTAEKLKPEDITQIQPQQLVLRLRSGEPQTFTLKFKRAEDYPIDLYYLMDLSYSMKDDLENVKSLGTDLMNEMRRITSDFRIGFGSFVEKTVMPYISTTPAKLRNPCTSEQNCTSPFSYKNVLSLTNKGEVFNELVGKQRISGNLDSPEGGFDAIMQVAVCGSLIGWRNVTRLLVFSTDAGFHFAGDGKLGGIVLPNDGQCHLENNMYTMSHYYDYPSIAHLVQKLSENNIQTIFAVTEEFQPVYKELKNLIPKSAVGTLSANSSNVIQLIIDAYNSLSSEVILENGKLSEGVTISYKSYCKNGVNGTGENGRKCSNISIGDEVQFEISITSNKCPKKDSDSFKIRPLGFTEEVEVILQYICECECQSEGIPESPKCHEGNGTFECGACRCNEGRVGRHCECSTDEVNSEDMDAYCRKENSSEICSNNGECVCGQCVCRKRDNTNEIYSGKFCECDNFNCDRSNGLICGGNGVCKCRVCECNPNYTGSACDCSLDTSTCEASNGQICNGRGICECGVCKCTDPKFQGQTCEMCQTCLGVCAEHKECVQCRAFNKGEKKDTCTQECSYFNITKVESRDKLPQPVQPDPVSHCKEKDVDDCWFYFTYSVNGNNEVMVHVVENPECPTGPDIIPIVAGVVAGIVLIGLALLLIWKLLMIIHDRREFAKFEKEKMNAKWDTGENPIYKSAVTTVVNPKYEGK
Procedure: The wells of 96-well plates (Immunolon) were coated, by incubation overnight at 4° C., with 5 ug/mL vitronectin, 2 ug/mL osteopontin, or fibronectin or 10 mg/mL BSA in PBS. The protein solution was flicked out and the wells were blocked with 10 mg/mL BSA (0.1 mL) for 1-2 hours at 37° C. Cells HT29, K562, or K562 transfected with αvβ3 (Blystone et al., 1994) were loaded with a fluorescent marker, 5-chloromethylfluorescein diacetate (Molecular Probes, Eugene, Oreg.) for 1 hour at 37° C., then incubated in fresh medium without the fluorescent marker for 1 hour. Cells were lifted with trypsin-EDTA and washed two times with Hank's balanced salt solution minus cations (Sigma) supplemented with 1 mM MgCl2 Cells (75,000 cells/well) were added to coated plates in triplicate and allowed to attach at 37° C. for 1 hour in the presence or absence of specific antibodies (5 ug/mL) or 10-fold dilutions of compounds of interest starting at 10 uM. Nonadherent cells were removed by gentle washing twice with PBS. The adherent cells were solubilized with 1% triton x-100 and detected using a fluorescence plate reader (DYNEX Technologies). The number of attached cells was calculated based upon standard curves for each cell line used in the experiment. Non-specific cell attachment (attachment to wells coated with BSA) was always less than 5%.

placental αvβ3 = target: T5, placental αvβ3 (Homo sapiens, UniProt P05106+P06756); test: Fibrinogen binding to immobilized αvβ3
T5 construct: placental αvβ3 at 0.5 ug/mL; from tissue; host or cells: placenta
T5 sequence (P06756 31-889 limits assumed): as the sequence (P06756 31-889 limits assumed) above
T5 sequence (P06756 891-1048 partner limits assumed): as the sequence (P06756 891-1048 partner limits assumed) above
T5 sequence (P05106 27-788): as the sequence (P05106 27-788) above
Procedure: as §1

HMVEC = test: Cell proliferation and cytotoxicity MTT assay, HMVEC; assay type: cell-based; details: HMVEC, 72 hours culture
Procedure: as §3

Q: What does the source list for `NCCCNC(=O)c1ccc(C(=O)NC(CC(=O)O)c2ccccc2)s1.O=C(O)C(F)(F)F` (stereo not shown) [Compound VII, 3-{[5-(3-Amino-propylcarbamoyl)-thiophene-2-carbonyl]-amino}-3-phenyl-propionic acid trifluoroacetic acid salt]?
A: IC50 (GP IIb-IIIa (αIIbβ3)): 13.7 µM; IC50 (αvβ5): > 10 µM; IC50 (HT29): > 10 µM; IC50 (αvβ3): > 10 µM; IC50 (α5β1): > 10 µM; IC50 (placental αvβ3): 6.6 µM; IC50 (HMVEC): > 10 µM
